From US6914045B2, “Glycopeptide antibiotics” (Wyeth Holdings Corporation, priority 2001, dated 2005)
≈ marks a conversion by molar mass, not a printed value.

How the values were obtained:
Test in all cases: in vitro antibacterial evaluation, MIC by broth dilution
Type in all cases: cell-based
Staphylococcus sp. = conditions: broth dilution, 18 hours at 35° C.; for MIC Staphylococcus aureus (GC 1131): strain GC 1131
In short: (§1)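 Following National Committee for Clinical Laboratory Standards recommendations (M7-A2), susceptibility was measured by dilution in Muller-Hinton II […]. Bacteria were seeded at 5×10^5 CFU/mL against compound concentrations from 64 down to 0.06 μg/mL.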

Enterococcus sp. = conditions: broth dilution, 18 hours at 35° C.
In short: as §1

Streptococcus sp. = conditions: broth dilution, 18 hours at 35° C.
In short: as §1

Escherichia coli = conditions: 18 hours at 35° C.

MIC Staphylococcus aureus (GC 1131) (Staphylococcus sp.; inoculum 5×10^5 CFU/mL): 2 µg/mL (≈ 1.45 µM) | MIC Staphylococcus aureus (ATCC 29213) (Staphylococcus sp.; strain ATCC 29213): 2 µg/mL (≈ 1.45 µM) | MIC Staphylococcus aureus (GC 1131) (Staphylococcus sp.): 2 µg/mL (≈ 1.45 µM) | MIC Staphylococcus aureus (GC 3051) (Staphylococcus sp.; strain GC 3051): 1 µg/mL (≈ 0.727 µM) | MIC Staphylococcus aureus (GC 3053) (Staphylococcus sp.; strain GC 3053): 2 µg/mL (≈ 1.45 µM) | MIC Staphylococcus aureus (GC 4541) (Staphylococcus sp.; strain GC 4541): 2 µg/mL (≈ 1.45 µM) | MIC Staphylococcus aureus (GC 4542) (Staphylococcus sp.; strain GC 4542): 1 µg/mL (≈ 0.727 µM) | MIC Staphylococcus aureus-SMITH (GC 4543) (Staphylococcus sp.; strain GC 4543): 1 µg/mL (≈ 0.727 µM) | MIC Staphylococcus aureus (GC 4544) (Staphylococcus sp.; strain GC 4544): 2 µg/mL (≈ 1.45 µM) | MIC Staphylococcus aureus (GC 4545) (Staphylococcus sp.; strain GC 4545): 1 µg/mL (≈ 0.727 µM) | MIC Coagulase Negative Staphylococcus (GC 4547) (Staphylococcus sp.; strain GC 4547): 2 µg/mL (≈ 1.45 µM) | MIC Coagulase Negative Staphylococcus (GC 4548) (Staphylococcus sp.; strain GC 4548): 0.5 µg/mL (≈ 0.364 µM) | MIC Coagulase Negative Staphylococcus (GC 4549) (Staphylococcus sp.; strain GC 4549): 0.5 µg/mL (≈ 0.364 µM) | MIC Coagulase Negative Staphylococcus (GC 4551) (Staphylococcus sp.; strain GC 4551): 1 µg/mL (≈ 0.727 µM) | MIC Enterococcus avium (GC 4558) (Enterococcus sp.): 2 µg/mL (≈ 1.45 µM) | MIC Enterococcus faecalis (ATCC 29212) (Enterococcus sp.): 4 µg/mL (≈ 2.91 µM) | MIC Enterococcus faecalis (GC 2242) (Enterococcus sp.): 2 µg/mL (≈ 1.45 µM) | MIC Enterococcus faecalis (GC 2691) (Enterococcus sp.): 4 µg/mL (≈ 2.91 µM) | MIC Enterococcus faecalis (GC 3059) (Enterococcus sp.): 4 µg/mL (≈ 2.91 µM) | MIC Enterococcus faecalis (GC 4552) (Enterococcus sp.): 4 µg/mL (≈ 2.91 µM) | MIC Enterococcus faecalis (GC 4553) (Enterococcus sp.): 4 µg/mL (≈ 2.91 µM) | MIC Enterococcus faecalis (GC 4554) (Enterococcus sp.): 4 µg/mL (≈ 2.91 µM) | MIC Enterococcus faecalis (GC 6189) (Enterococcus sp.): 2 µg/mL (≈ 1.45 µM) | MIC Enterococcus faecium (GC 2243) (Enterococcus sp.): 4 µg/mL (≈ 2.91 µM) | MIC Enterococcus faecium (GC 4556) (Enterococcus sp.): 4 µg/mL (≈ 2.91 µM) | MIC Enterococcus faecium (GC 4557) (Enterococcus sp.): 2 µg/mL (≈ 1.45 µM) | MIC Enterococcus faecalis (ATCC 29212) (Enterococcus sp.; inoculum 5×10^5 CFU/mL, strain ATCC 29212): 4 µg/mL (≈ 2.91 µM) | MIC Enterococcus faecalis (GC 2242) (Enterococcus sp.; inoculum 5×10^5 CFU/mL, strain GC 2242): 2 µg/mL (≈ 1.45 µM) | MIC Enterococcus faecium (GC 2243) (Enterococcus sp.; inoculum 5×10^5 CFU/mL, strain GC 2243): 4 µg/mL (≈ 2.91 µM) | MIC Enterococcus faecalis (GC 2691) (Enterococcus sp.; inoculum 5×10^5 CFU/mL, strain GC 2691): 4 µg/mL (≈ 2.91 µM) | MIC Enterococcus faecalis (GC 3059) (Enterococcus sp.; inoculum 5×10^5 CFU/mL, strain GC 3059): 4 µg/mL (≈ 2.91 µM) | MIC Enterococcus faecalis (GC 4552) (Enterococcus sp.; inoculum 5×10^5 CFU/mL, strain GC 4552): 4 µg/mL (≈ 2.91 µM) | MIC Enterococcus faecalis (GC 4553) (Enterococcus sp.; inoculum 5×10^5 CFU/mL, strain GC 4553): 4 µg/mL (≈ 2.91 µM) | MIC Enterococcus faecalis (GC 4554) (Enterococcus sp.; inoculum 5×10^5 CFU/mL, strain GC 4554): 4 µg/mL (≈ 2.91 µM) | MIC Enterococcus faecium (GC 4556) (Enterococcus sp.; inoculum 5×10^5 CFU/mL, strain GC 4556): 4 µg/mL (≈ 2.91 µM) | MIC Enterococcus faecium (GC 4557) (Enterococcus sp.; inoculum 5×10^5 CFU/mL, strain GC 4557): 2 µg/mL (≈ 1.45 µM) | MIC Enterococcus avium (GC 4558) (Enterococcus sp.; inoculum 5×10^5 CFU/mL, strain GC 4558): 2 µg/mL (≈ 1.45 µM) | MIC Enterococcus faecalis (GC 6189) (Enterococcus sp.; inoculum 5×10^5 CFU/mL, strain GC 6189): 2 µg/mL (≈ 1.45 µM) | MIC Streptococcus agalactiae (GC 4564) (Streptococcus sp.): <0.12 µg/mL | MIC Streptococcus pneumoniae (ATCC 6301) (Streptococcus sp.): <0.12 µg/mL | MIC Streptococcus pneumoniae (GC 1894) (Streptococcus sp.): <0.12 µg/mL | MIC Streptococcus pneumoniae (GC 4565) (Streptococcus sp.): <0.12 µg/mL | MIC Streptococcus pyogenes (GC 4563) (Streptococcus sp.): <0.12 µg/mL | MIC Streptococcus pneumoniae (ATCC 6301) (Streptococcus sp.; inoculum 5×10^5 CFU/mL, strain ATCC 6301): <0.12 µg/mL | MIC Streptococcus pneumoniae (GC 1894) (Streptococcus sp.; inoculum 5×10^5 CFU/mL, strain GC 1894): <0.12 µg/mL | MIC Streptococcus pyogenes (GC 4563) (Streptococcus sp.; inoculum 5×10^5 CFU/mL, strain GC 4563): <0.12 µg/mL | MIC Streptococcus agalactiae (GC 4564) (Streptococcus sp.; inoculum 5×10^5 CFU/mL, strain GC 4564): <0.12 µg/mL | MIC Streptococcus pneumoniae (GC 4565) (Streptococcus sp.; inoculum 5×10^5 CFU/mL, strain GC 4565): <0.12 µg/mL | MIC Escherichia coli (ATCC 25922) (Escherichia coli): 64 µg/mL (≈ 46.5 µM) | MIC Escherichia coli (GC 4559) (Escherichia coli): 32 µg/mL (≈ 23.3 µM) | MIC Escherichia coli (GC 4560) (Escherichia coli): 1 µg/mL (≈ 0.727 µM)
SMILES: N=C1NCC(C(O)C2NC(=O)C(Cc3ccc(OC4OC(CO)C(OC5OC6COC(c7ccccc7)OC6C(O)C5O)C(O)C4O)cc3)NC(=O)C(CC3CCCCC3)NC(=O)CNC(=O)C(CO)NC(=O)C(C(O)C3CNC(=N)N3C3OC(CO)C(O)C(O)C3O)NC2=O)N1 (stereo not shown) [Example 199]
MIC Staphylococcus haemolyticus (GC 4546) (Staphylococcus sp.; strain GC 4546): 1 µg/mL (≈ 0.727 µM)
